Measurements: paper doi:10.1101/2020.06.11.145995v1 (biorxiv, 2020)
Where two headings read alike, the source gives them in different places. Each block holds one compound with its values, some of them ahead of it.

What was measured:
Assay in all cases: biochemical
SRPK2 = SRPK2 (Homo sapiens, UniProt P78362)
YANK2 = YANK2 (Homo sapiens, UniProt Q9NY57)
TGFBR1 = TGFBR1 (Homo sapiens, UniProt P36897)
PDGFRB = PDGFRB (Homo sapiens, UniProt P09619)
STK39 = STK39 (Homo sapiens, UniProt Q9UEW8)
SYK = SYK (Homo sapiens, UniProt P43405)
PRKCI = PRKCI (Homo sapiens, UniProt P41743)
SRPK1 = SRPK1 (Homo sapiens, UniProt Q96SB4)
Chain of SRPK1 (Q96SB4 whole entry): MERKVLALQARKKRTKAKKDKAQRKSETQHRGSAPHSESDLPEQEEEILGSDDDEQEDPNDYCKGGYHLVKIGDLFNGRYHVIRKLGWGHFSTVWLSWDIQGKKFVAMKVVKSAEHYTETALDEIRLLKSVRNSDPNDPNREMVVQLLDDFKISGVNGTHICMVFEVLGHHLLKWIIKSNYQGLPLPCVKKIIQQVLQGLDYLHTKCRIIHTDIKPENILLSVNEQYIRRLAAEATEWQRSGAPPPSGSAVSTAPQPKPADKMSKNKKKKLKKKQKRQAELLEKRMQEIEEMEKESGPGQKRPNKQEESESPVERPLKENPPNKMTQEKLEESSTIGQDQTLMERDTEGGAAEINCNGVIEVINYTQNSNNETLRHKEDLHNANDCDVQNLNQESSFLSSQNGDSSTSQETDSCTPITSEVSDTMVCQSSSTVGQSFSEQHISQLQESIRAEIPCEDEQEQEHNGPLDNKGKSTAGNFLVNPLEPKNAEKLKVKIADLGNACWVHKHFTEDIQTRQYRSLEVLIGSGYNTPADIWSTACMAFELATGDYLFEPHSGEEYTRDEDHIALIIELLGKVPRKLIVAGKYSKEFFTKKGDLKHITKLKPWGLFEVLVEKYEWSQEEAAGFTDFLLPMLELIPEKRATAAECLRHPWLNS

PRKCE = PRKCE (Homo sapiens, UniProt Q02156)
SIK = SIK (Homo sapiens, UniProt P57059)
WEE1 = WEE1 (Homo sapiens, UniProt P30291)
RIPK2 = RIPK2 (Homo sapiens, UniProt O43353)
Chain of RIPK2 (O43353 whole entry): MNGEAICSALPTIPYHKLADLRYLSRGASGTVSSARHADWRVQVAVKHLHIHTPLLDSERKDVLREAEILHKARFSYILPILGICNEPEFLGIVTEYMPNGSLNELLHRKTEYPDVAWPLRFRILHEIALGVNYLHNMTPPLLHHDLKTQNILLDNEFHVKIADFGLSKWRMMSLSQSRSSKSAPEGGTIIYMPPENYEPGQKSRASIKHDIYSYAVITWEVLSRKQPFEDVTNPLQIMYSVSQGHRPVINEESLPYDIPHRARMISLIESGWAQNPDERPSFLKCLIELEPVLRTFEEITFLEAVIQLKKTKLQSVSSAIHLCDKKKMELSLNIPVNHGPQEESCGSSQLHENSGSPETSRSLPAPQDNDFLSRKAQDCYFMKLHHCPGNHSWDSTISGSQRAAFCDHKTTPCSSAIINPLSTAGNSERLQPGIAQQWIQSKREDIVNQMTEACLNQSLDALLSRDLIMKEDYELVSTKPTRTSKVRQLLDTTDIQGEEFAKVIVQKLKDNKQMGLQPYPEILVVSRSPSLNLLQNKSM

PCTK1 = PCTK1 (Homo sapiens, UniProt Q00536)
Chain of PCTK1 (Q00536 whole entry): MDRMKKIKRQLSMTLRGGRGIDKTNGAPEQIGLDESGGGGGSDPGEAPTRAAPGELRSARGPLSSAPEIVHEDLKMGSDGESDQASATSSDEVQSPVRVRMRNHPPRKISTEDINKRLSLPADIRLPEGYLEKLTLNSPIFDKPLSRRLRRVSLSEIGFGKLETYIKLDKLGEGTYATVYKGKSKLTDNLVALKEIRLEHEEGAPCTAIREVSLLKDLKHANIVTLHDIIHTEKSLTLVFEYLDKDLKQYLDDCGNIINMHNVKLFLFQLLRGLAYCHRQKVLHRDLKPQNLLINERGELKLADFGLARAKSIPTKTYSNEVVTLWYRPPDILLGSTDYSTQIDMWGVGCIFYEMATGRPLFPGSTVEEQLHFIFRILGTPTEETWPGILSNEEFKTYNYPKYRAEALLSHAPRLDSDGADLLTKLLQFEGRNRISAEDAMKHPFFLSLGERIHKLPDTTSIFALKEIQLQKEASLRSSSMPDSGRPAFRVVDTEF

YSK1 = YSK1 (Homo sapiens, UniProt O00506)
PRKCQ = PRKCQ (Homo sapiens, UniProt Q04759)
NLK = NLK (Homo sapiens, UniProt Q9UBE8)
PRP4 = PRP4 (Homo sapiens, UniProt Q13523)
PRKR = PRKR (Homo sapiens, UniProt P19525)
TGFBR2 = TGFBR2 (Homo sapiens, UniProt P37173)
SGK3 = SGK3 (Homo sapiens, UniProt Q96BR1)
RIOK2 = RIOK2 (Homo sapiens, UniProt Q9BVS4)
TAK1 = TAK1 (Homo sapiens, UniProt O43318)
Chain of TAK1 (O43318 whole entry): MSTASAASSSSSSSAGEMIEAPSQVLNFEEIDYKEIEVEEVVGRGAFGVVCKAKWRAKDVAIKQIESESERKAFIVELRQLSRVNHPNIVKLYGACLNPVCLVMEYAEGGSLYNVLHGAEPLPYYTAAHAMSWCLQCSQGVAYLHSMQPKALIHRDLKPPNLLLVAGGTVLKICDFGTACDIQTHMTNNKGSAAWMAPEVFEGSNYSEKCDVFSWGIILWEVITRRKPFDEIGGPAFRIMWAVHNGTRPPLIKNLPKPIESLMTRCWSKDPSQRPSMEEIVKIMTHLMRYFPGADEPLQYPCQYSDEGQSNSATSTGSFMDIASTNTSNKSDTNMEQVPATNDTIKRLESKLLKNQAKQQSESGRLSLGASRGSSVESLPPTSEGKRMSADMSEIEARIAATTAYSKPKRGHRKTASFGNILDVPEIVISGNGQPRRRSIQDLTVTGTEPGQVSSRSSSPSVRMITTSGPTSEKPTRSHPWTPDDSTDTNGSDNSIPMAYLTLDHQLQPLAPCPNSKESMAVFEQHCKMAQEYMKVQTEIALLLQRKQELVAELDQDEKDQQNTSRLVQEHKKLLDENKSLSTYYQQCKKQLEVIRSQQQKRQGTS

PYK2 = PYK2 (Homo sapiens, UniProt Q14289)
Chain of PYK2 (Q14289 whole entry): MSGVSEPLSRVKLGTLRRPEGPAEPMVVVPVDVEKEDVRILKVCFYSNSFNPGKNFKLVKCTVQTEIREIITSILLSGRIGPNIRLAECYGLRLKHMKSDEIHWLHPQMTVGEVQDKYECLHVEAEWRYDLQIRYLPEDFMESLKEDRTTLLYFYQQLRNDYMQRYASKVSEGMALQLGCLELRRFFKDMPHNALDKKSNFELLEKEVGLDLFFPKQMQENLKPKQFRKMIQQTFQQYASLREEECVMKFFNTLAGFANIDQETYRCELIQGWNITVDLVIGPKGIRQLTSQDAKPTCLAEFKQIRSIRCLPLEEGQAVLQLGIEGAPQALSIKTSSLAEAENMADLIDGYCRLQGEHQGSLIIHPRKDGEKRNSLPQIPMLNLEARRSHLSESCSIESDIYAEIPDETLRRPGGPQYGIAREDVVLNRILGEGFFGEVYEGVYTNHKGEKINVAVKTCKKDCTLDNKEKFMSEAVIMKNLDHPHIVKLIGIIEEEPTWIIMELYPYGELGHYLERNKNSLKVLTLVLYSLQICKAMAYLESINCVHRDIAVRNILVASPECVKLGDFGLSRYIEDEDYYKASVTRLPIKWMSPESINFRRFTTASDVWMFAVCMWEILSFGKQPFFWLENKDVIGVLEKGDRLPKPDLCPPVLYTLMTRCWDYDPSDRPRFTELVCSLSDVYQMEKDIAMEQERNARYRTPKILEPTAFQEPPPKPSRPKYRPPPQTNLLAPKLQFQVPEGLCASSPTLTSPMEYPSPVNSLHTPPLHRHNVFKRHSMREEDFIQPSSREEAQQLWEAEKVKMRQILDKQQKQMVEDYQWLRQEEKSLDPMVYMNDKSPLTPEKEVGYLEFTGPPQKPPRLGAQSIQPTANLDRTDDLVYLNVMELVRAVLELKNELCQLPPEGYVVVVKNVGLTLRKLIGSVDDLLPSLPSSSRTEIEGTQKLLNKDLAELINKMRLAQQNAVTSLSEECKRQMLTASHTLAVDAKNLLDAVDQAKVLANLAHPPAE

TRKC = TRKC (Homo sapiens, UniProt Q16288)
RET(M918T) = RET(M918T) (Homo sapiens, UniProt P07949, M918T)
RSK2 = RSK2 (Homo sapiens, UniProt P51812)
TYRO3 = TYRO3 (Homo sapiens, UniProt Q06418)
SRPK3 = SRPK3 (Homo sapiens, UniProt Q9UPE1)
RPS6KA4 = RPS6KA4 (Homo sapiens, UniProt O75676)
Chain of RPS6KA4 (O75676 whole entry): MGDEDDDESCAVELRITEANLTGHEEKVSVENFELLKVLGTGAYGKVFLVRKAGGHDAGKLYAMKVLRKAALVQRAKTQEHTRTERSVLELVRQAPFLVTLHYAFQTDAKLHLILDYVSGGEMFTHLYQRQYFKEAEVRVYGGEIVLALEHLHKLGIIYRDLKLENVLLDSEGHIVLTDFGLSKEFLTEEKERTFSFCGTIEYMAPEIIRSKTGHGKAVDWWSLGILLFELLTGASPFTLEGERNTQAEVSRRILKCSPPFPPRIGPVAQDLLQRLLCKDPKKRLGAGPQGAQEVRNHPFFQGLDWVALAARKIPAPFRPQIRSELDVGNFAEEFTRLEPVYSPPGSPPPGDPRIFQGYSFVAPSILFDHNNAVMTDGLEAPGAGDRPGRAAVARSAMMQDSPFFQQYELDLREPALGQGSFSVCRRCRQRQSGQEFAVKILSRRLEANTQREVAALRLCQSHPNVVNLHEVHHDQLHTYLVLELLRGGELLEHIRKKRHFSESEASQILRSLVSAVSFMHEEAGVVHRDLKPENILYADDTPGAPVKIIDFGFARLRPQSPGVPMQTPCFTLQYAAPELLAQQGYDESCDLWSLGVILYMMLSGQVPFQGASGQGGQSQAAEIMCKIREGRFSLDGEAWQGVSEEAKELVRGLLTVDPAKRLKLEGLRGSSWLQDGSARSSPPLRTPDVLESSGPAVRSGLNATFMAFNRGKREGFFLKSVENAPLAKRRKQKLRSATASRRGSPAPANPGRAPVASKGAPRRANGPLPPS

[1] = read-out: CPT-1-70-1 (1μM) % control
[2] = read-out: CPT-1-70-1 (1μM) % control, Kin.Dom.1-N-terminal
[3] = read-out: HYJ-2-002-1 (1μM) % control
[4] = read-out: HYJ-2-002-1 (1μM) % control, Kin.Dom.1-N-terminal

Chain of TGFBR1 (P36897 whole entry): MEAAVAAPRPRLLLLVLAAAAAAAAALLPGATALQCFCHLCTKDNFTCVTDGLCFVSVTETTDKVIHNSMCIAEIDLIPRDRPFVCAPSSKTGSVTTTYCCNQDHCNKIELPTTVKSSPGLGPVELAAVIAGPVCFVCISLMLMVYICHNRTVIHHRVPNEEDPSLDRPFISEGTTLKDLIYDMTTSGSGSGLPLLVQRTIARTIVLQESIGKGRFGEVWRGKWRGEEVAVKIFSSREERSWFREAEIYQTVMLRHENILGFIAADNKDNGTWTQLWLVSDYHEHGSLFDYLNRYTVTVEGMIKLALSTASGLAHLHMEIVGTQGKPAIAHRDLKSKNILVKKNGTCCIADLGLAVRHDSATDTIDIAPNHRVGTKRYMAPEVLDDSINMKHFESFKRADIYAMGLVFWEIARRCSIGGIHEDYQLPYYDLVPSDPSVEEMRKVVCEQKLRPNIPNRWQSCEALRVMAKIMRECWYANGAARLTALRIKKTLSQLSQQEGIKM
Chain of YANK2 (Q9NY57 whole entry): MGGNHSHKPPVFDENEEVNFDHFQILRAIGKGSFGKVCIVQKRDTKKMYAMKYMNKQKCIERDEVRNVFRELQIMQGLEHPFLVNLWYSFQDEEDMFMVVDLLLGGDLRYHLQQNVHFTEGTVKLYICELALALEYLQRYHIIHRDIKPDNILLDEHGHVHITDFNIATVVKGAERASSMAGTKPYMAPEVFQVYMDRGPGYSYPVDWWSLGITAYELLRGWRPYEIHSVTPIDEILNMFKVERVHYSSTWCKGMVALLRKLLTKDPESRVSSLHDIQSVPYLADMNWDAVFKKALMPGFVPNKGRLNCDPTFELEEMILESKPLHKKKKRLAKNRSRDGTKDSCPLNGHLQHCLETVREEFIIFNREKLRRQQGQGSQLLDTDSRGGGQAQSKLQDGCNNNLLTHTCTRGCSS

Compound: CN1CCN(c2ccc(Nc3nc(Oc4ccc(NC(=O)CCl)cc4)c4cc[nH]c4n3)cc2)CC1 [CPT1-70-1]
remaining activity at 1 µM (SRPK2; [1]): 98%
remaining activity at 1 µM (YANK2; [1]): 100%
remaining activity at 1 µM (TGFBR1; [1]): 100%
remaining activity at 1 µM (PDGFRB; [1]): 6.9%
remaining activity at 1 µM (STK39; [1]): 85%
remaining activity at 1 µM (SYK; [1]): 63%
remaining activity at 1 µM (PRKCI; [1]): 65%
remaining activity at 1 µM (SRPK1; [1]): 44%
remaining activity at 1 µM (PRKCE; [1]): 63%
remaining activity at 1 µM (SIK; [1]): 100%
remaining activity at 1 µM (WEE1; [1]): 88%
remaining activity at 1 µM (RIPK2; [1]): 100%
remaining activity at 1 µM (PCTK1; [1]): 100%
remaining activity at 1 µM (YSK1; [1]): 89%
remaining activity at 1 µM (PRKCQ; [1]): 100%
remaining activity at 1 µM (NLK; [1]): 100%
remaining activity at 1 µM (PRP4; [1]): 90%
remaining activity at 1 µM (PRKR; [1]): 93%
remaining activity at 1 µM (TGFBR2; [1]): 100%
remaining activity at 1 µM (SGK3; [1]): 74%
remaining activity at 1 µM (RIOK2; [1]): 5.2%
remaining activity at 1 µM (TAK1; [1]): 3.6%
remaining activity at 1 µM (PYK2; [1]): 66%
remaining activity at 1 µM (TRKC; [1]): 61%
remaining activity at 1 µM (RET(M918T); [1]): 13%
remaining activity at 1 µM (RSK2; [2]): 100%
remaining activity at 1 µM (TYRO3; [1]): 100%
remaining activity at 1 µM (SRPK3; [1]): 100%
remaining activity at 1 µM (RPS6KA4; [2]): 100%
remaining activity at 1 µM (RPS6KA4; read-out: CPT-1-70-1 (1μM) % control, Kin.Dom.2-C-terminal): 79%

remaining activity at 1 µM (SRPK2; [3]): 100%
remaining activity at 1 µM (YANK2; [3]): 100%
remaining activity at 1 µM (TGFBR1; [3]): 100%
remaining activity at 1 µM (PDGFRB; [3]): 0%
remaining activity at 1 µM (STK39; [3]): 94%
remaining activity at 1 µM (SYK; [3]): 18%
remaining activity at 1 µM (PRKCI; [3]): 73%
remaining activity at 1 µM (SRPK1; [3]): 83%
remaining activity at 1 µM (PRKCE; [3]): 100%
remaining activity at 1 µM (SIK; [3]): 1.8%
remaining activity at 1 µM (WEE1; [3]): 100%
remaining activity at 1 µM (RIPK2; [3]): 5.3%
remaining activity at 1 µM (PCTK1; [3]): 100%
remaining activity at 1 µM (YSK1; [3]): 87%
remaining activity at 1 µM (PRKCQ; [3]): 82%
remaining activity at 1 µM (NLK; [3]): 28%
remaining activity at 1 µM (PRP4; [3]): 100%
remaining activity at 1 µM (PRKR; [3]): 75%
remaining activity at 1 µM (TGFBR2; [3]): 41%
remaining activity at 1 µM (SGK3; [3]): 100%
remaining activity at 1 µM (RIOK2; [3]): 35%
remaining activity at 1 µM (TAK1; [3]): 6.6%
remaining activity at 1 µM (PYK2; [3]): 21%
remaining activity at 1 µM (TRKC; [3]): 8%
remaining activity at 1 µM (RET(M918T); [3]): 0.95%
remaining activity at 1 µM (RSK2; [4]): 100%
remaining activity at 1 µM (TYRO3; [3]): 40%
remaining activity at 1 µM (SRPK3; [3]): 90%
remaining activity at 1 µM (RPS6KA4; [4]): 99%
remaining activity at 1 µM (RPS6KA4; read-out: HYJ-2-002-1 (1μM) % control, Kin.Dom.2-C-terminal): 100%
Compound: CCN1CCN(Cc2ccc(NC(=O)c3ccc(C)c(CCc4cnc5[nH]ccc5c4OC)c3)cc2C(F)(F)F)CC1 [HYJ-2-002-1]
